Experimental data reported in article PMC10178848, “Modulating fast skeletal muscle contraction protects skeletal muscle in animal models of Duchenne muscular dystrophy” (The Journal of Clinical Investigation, 2023).

Experiments:
[1] = molecular target: mouse gastrocnemius myofibrils; assay: Myofibril ATPase, mouse gastrocnemius; type: biochemical; conditions: 21% IIa, 15% IIx, 56% IIb
[2] = molecular target: T1, CHEK1 (Homo sapiens, UniProt O14757); assay: KINOMEscan scanEDGE; type: binding; conditions: 20 uM
T1 construct: purchased Eurofins DiscoverX (KINOMEscan; SAFETYscan E/IC50 ELECT)
T1 sequence (O14757 whole entry): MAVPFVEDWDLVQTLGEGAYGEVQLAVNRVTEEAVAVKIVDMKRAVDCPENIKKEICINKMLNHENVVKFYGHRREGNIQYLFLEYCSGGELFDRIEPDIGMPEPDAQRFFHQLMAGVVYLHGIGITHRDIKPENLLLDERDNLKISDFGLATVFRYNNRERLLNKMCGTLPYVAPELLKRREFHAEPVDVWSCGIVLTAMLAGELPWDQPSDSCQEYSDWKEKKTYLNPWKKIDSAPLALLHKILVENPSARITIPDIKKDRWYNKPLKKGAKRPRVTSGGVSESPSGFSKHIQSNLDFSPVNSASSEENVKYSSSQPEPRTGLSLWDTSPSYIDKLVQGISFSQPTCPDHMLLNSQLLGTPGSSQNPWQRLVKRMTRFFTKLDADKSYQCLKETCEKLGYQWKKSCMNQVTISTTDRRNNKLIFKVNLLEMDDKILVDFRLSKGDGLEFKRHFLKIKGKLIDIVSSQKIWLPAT

[3] = molecular target: T2, INSR (Homo sapiens, UniProt P06213); assay: SAFETYscan Binding; set-up: dose or concentration left out as unconfirmed; conditions: read-out: Max Response (%) (Antagonist)
T2 construct: purchased Eurofins DiscoverX (KINOMEscan; SAFETYscan E/IC50 ELECT)
T2 sequence (P06213 28-1382): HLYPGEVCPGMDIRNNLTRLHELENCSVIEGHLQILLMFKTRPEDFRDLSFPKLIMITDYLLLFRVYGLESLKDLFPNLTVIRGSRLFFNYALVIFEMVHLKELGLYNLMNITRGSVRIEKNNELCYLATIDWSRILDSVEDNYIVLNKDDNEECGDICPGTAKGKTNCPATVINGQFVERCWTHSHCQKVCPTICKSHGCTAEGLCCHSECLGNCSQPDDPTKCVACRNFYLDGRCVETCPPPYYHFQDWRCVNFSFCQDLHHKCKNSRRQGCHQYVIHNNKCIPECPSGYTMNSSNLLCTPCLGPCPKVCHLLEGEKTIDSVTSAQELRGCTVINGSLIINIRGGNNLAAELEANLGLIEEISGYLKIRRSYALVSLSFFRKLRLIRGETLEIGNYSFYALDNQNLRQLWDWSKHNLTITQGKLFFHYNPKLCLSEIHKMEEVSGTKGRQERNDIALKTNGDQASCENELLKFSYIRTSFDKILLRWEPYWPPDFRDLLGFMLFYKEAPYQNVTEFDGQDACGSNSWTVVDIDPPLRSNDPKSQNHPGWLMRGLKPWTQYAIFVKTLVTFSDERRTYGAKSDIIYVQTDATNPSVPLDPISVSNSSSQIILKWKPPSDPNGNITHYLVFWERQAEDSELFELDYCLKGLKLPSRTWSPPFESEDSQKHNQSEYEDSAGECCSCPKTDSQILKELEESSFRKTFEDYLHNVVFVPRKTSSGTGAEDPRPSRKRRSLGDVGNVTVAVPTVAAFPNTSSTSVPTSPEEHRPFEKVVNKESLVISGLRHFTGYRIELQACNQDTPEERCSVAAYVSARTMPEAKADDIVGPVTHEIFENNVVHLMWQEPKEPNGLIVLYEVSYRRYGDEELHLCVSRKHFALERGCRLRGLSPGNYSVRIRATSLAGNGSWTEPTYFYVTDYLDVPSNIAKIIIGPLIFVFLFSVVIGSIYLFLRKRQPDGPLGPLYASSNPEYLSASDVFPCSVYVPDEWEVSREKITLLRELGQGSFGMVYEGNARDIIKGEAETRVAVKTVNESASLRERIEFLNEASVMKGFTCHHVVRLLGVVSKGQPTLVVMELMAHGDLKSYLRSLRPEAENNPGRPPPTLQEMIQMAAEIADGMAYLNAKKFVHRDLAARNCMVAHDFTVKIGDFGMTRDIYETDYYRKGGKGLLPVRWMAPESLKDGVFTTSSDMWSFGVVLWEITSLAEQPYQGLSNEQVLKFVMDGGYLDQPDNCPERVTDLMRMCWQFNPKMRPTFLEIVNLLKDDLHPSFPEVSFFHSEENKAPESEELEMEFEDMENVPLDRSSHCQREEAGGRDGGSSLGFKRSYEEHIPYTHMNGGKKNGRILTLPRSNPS
Experimental: (§1) The specificity of EDG-5506 for fast skeletal myosin over other, unrelated proteins was confirmed using two off-target binding and activity screens. […] A second off-target panel (SAFETYscan E/IC50 ELECT, Eurofins DiscoverX) tested in vitro enzyme activity against 78 proteins, including GPCR, ion channel, kinases, nuclear hormone receptors, and transporters. In all assays, the IC50 of EDG-5506 was more than 10 μM (Supplemental Data File 1).

[4] = molecular target: T3, VEGFR2 (Homo sapiens, UniProt P35968); assay: SAFETYscan Binding; set-up: dose or concentration left out as unconfirmed; conditions: read-out: Max Response (%) (Antagonist)
T3 construct: purchased Eurofins DiscoverX (KINOMEscan; SAFETYscan E/IC50 ELECT)
T3 sequence (P35968 20-1356): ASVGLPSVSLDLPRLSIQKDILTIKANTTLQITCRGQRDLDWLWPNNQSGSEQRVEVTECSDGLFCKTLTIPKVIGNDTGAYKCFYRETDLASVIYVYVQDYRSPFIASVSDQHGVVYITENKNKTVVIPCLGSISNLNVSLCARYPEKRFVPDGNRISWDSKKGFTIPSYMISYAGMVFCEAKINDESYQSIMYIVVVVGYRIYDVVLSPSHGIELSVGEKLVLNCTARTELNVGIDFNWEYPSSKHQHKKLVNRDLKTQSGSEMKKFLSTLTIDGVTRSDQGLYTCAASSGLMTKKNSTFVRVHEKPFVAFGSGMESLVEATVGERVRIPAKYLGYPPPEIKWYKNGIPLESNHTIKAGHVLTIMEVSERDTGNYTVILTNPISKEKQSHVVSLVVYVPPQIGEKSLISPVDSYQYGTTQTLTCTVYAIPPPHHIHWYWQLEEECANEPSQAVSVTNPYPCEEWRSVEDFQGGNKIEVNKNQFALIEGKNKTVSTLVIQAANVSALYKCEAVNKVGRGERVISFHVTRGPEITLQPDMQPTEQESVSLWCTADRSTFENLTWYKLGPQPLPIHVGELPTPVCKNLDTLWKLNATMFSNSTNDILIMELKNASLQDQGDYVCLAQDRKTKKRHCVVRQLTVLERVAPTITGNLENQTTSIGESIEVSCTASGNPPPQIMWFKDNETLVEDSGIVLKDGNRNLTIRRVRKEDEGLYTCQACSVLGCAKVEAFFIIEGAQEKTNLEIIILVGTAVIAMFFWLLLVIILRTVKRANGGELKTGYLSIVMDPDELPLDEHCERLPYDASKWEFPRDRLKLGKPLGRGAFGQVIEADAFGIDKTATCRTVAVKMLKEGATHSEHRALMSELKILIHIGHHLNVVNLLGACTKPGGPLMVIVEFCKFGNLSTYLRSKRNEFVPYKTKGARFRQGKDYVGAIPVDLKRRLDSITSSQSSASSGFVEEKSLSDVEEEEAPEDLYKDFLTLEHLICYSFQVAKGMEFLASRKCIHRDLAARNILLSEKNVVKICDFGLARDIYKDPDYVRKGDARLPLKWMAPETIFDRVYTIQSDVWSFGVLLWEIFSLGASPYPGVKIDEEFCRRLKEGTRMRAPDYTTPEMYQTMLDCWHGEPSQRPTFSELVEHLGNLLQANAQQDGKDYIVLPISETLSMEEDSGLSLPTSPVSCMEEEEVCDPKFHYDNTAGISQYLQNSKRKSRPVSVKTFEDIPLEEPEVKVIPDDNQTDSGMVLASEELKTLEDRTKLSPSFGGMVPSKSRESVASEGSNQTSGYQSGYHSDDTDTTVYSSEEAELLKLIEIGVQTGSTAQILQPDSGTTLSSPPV
Experimental: as §1

## O=c1ccc(-c2cnc(OCC(F)(F)F)nc2)nn1Cc1cncc(F)c1 [EDG-5506]
[1]
  IC50: 400 nM
[2]
  binding, % of control: 100 % of control
[3]
  Emax: 26.9%
[4]
  Emax: 18.1%
